Measurements: ChEMBL document CHEMBL3232764, “Influence of the adamantyl moiety on the activity of biphenylacrylohydroxamic acid-based HDAC inhibitors” (Eur J Med Chem, 2014)

Molecular target: T1, Histone deacetylase 7 (Homo sapiens, UniProt Q8WUI4)
T1 sequence (Q8WUI4 whole entry): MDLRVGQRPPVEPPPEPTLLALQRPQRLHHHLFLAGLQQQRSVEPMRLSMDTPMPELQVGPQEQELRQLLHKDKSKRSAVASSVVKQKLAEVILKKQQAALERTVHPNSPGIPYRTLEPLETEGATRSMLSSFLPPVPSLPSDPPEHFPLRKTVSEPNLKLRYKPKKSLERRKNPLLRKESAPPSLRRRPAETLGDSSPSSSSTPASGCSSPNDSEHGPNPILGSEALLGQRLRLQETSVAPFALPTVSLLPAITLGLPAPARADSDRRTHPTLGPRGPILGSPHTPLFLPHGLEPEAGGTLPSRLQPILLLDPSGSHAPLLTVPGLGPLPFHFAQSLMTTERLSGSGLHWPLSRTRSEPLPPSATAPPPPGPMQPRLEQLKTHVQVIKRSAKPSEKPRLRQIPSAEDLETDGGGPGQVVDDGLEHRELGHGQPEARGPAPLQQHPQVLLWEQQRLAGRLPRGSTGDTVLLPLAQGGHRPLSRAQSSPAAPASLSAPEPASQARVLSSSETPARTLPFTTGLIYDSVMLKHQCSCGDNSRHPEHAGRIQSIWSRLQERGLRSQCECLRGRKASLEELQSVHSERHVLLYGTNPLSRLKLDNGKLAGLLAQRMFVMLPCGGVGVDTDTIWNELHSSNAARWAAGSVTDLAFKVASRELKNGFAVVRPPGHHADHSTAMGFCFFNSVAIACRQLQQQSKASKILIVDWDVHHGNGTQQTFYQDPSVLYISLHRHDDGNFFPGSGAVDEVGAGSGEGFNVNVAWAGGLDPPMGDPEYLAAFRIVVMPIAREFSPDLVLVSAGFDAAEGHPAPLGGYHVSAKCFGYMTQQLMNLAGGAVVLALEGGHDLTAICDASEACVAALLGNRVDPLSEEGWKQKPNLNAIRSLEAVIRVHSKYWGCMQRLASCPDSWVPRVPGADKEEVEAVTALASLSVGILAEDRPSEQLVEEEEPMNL
Assay: Inhibition of human HDAC7 using fluorogenic tetrapeptide RHKKAc as substrate

IC50: > 100 µM
SMILES: COc1ccc(-c2ccc(/C=C/C=C/C(=O)NO)cc2)cc1
